Consider 76 compounds from patent publication US8546380B2, “Aminodihydrothiazine derivatives” (Shionogi & Co., Ltd., priority 2005, dated 2013).

recombinant human BACE-1 protein, sequence (P56817 46-501): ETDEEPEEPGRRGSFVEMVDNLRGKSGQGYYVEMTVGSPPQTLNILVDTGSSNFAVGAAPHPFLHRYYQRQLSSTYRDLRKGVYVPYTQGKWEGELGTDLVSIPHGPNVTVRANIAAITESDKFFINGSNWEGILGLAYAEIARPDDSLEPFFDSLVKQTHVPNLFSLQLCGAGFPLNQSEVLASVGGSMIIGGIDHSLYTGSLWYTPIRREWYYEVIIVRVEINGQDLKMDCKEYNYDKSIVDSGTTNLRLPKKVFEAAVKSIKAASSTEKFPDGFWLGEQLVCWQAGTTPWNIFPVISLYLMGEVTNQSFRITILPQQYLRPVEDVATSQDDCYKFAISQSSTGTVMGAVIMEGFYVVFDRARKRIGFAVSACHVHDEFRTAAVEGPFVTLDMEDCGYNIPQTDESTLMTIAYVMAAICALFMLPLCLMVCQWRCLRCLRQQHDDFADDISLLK

One assay addresses recombinant human BACE-1 protein (Homo sapiens (Human), UniProt P56817). Kind of assay: Measurement of Inhibition of β-Secretase Activity. It counts as biochemical.
Conditions: not given
The procedure, abridged: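 Recombinant human BACE-1 incubated with compound and Eu-cryptate-labelled biotinylated peptide substrate 3 h at 30° C in 50 mM sodium acetate pH 5.0, 0.008% Triton X-100. Streptavidin-XL665 in KF-containing phosphate buffer pH 7.0 then added, 1 h at 30° C, for time-resolved FRET read-out.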
As for `CC1(c2cccc(NC(=O)c3nc4ccccc4s3)c2)CCSC(N)=N1` (stereo not shown) [Compound 1108], the IC50 was under 100 µM.

The assay is the same for the next values; noted with them: fluorescence-quenched peptide substrate 18 nM, BACE-1 7.4 nM, 3 h at 30° C., pH5.0; read-out: IC50 value.
As for `CC1(c2cccc(NC(=O)C(=O)Nc3ccccc3)c2)CCSC(N)=N1` (stereo not shown) [Compound 1147], the 50% inhibitory concentration (IC50) was under 100 µM.

For the compound `CC1(c2cccc(NC(=O)c3cnc(N=[N+]=N)cn3)c2)CCSC(N)=N1` (stereo not shown) [Compound 1266], the IC50 was under 100 µM.

Consider `CC1(c2cccc(CNc3ccccn3)c2)CCSC(N)=N1` (stereo not shown) [Compound 281], for which the concentration for half-maximal inhibition (IC50) was under 100 µM.

For `CC1(c2cccc(Nc3nc4ccccc4[nH]3)c2)CCSC(N)=N1` (stereo not shown) [Compound 681], the IC50 was under 100 µM.

As for `CC1(c2cccc(NC(=O)c3cncs3)c2)CCSC(N)=N1` (stereo not shown) [Compound 791], the IC50 is under 100 µM.

As for `CC1(c2cccc(NC(=O)c3ccc4[nH]cnc4c3)c2)CCSC(N)=N1` (stereo not shown) [Compound 1046], the half-inhibitory concentration (IC50) is under 100 µM.

Turning to `COCCNc1cnc(C(=O)Nc2cccc(C3(C)CCSC(N)=N3)c2)cn1` (stereo not shown) [Compound 1269], the IC50 is under 100 µM.

Take `CC1(c2cccc(NC(=O)c3ccc(NCc4ccncc4)cn3)c2)CCSC(N)=N1` (stereo not shown) [Compound 393]: the half-maximal inhibitory concentration (IC50) was under 100 µM.

Consider `Cc1ccc(CCNc2cccc(C3(C)CCSC(N)=N3)c2)cc1` (stereo not shown) [Compound 876], for which the IC50 was under 100 µM.

Take `CC1(c2cccc(NC(=O)c3ccc(F)c(Br)c3)c2)CCSC(N)=N1` (stereo not shown) [Compound 215]: the concentration for half-maximal inhibition (IC50) was under 100 µM.

On to `CC1(c2cccc(NC(=O)CCNC(=O)c3ccc(F)cn3)c2)CCSC(N)=N1` (stereo not shown) [Compound 816], for which the concentration for half-maximal inhibition (IC50) was under 100 µM.

Consider `CC1(c2cccc(NC(=O)c3cnc(N4CCOCC4)cn3)c2)CCSC(N)=N1` (stereo not shown) [Compound 1264], for which the IC50 is under 100 µM.

On to `CC1(c2cccc(OCC(=O)Nc3ccc4c(c3)OCCO4)c2)CCSC(N)=N1` (stereo not shown) [Compound 509], for which the IC50 was under 100 µM.

Turning to `CC1(c2cccc(/C=N/Oc3ccccc3)c2)CCSC(N)=N1` (stereo not shown) [Compound 383], the half-maximal inhibitory concentration (IC50) is under 100 µM.

On to `CN1CCOc2cc(C(=O)Nc3cccc(C4(C)CCSC(N)=N4)c3)ccc21` (stereo not shown) [Compound 1004], for which the IC50 is under 100 µM.

Take `CC1(c2cccc(NC(=O)c3cccc(I)c3)c2)CCSC(N)=N1` (stereo not shown) [Compound 691]: the IC50 was under 100 µM.

Consider `COCCCc1ccc(C(=O)Nc2cccc(C3(C)CCSC(N)=N3)c2)nc1` (stereo not shown) [Compound 1150], for which the IC50 was under 100 µM.

For `CC1(c2cccc(NC(=S)Nc3ccc(Cl)cc3)c2)CCSC(N)=N1` (stereo not shown) [Compound 406], the IC50 is under 100 µM.

With `Cc1ccc(F)c(C(=O)Nc2cccc(C3(C)CCSC(N)=N3)c2)c1` (stereo not shown) [Compound 373], the IC50 was under 100 µM.

As to `CC1(c2cc(NC(=O)c3cc4cc(OC(F)(F)F)ccc4[nH]3)ccc2F)CCSC(N)=N1` (stereo not shown) [Compound 939], the 50% inhibitory concentration (IC50) was under 100 µM.

For `CC1(c2cccc(NC(=O)c3cc(CCCO)on3)c2)CCSC(N)=N1` (stereo not shown) [Compound 788], the IC50 was under 100 µM.

As for `CC1(c2cccc(NC(=O)c3ccc(NCc4ccccn4)cn3)c2)CCSC(N)=N1` (stereo not shown) [Compound 797], the IC50 is under 100 µM.

For the compound `CC1(c2cccc(NC(=O)c3ccc(-c4ccccc4)cc3)c2)CCSC(N)=N1` (stereo not shown) [Compound 761], the IC50 is under 100 µM.

Regarding `CC1(c2cccc(CNC(=O)Nc3ccccc3)c2)CCSC(N)=N1` (stereo not shown) [Compound 4], the half-inhibitory concentration (IC50) was under 100 µM.

As for `CC1(c2cccc(NC(=O)c3cccc(Cl)n3)c2)CCSC(N)=N1` (stereo not shown) [Compound 298], the IC50 is under 100 µM.

In the case of `CCn1nc(C)cc1C(=O)Nc1ccc(F)c(C2(C)CCSC(N)=N2)c1` (stereo not shown) [Compound 661], the IC50 was under 100 µM.

As for `CCOc1ccc(C(=O)Nc2cccc(C3(C)CCSC(N)=N3)c2)nc1` (stereo not shown) [Compound 516], the IC50 is under 100 µM.

Regarding `C/C(=N\OCc1ccccc1)c1cccc(C2(C)CCSC(N)=N2)c1` (stereo not shown) [Compound 620], the IC50 was under 100 µM.

Take `COC(=O)c1cccc(C(=O)Nc2cccc(C3(C)CCSC(N)=N3)c2)c1` (stereo not shown) [Compound 346]: the half-maximal inhibitory concentration (IC50) was under 100 µM.

Consider `CC1(c2cccc(NC(=O)c3ncc(C(F)(F)F)cc3Cl)c2)CCSC(N)=N1` (stereo not shown) [Compound 482], for which the IC50 was under 100 µM.

`CC1(c2cccc(NC(=O)c3ccc([N+](=O)[O-])cc3)c2)CCSC(N)=N1` (stereo not shown) [Compound 209]: the half-inhibitory concentration (IC50) is under 100 µM.

In the case of `Cc1ccc(S(=O)(=O)Nc2cc(Br)cc(C3(C)CCSC(N)=N3)c2)cc1` (stereo not shown) [Compound 1172], the half-inhibitory concentration (IC50) was under 100 µM.

With `CC1(c2cc(NC(=S)c3ccc(Cl)cc3)cc(S(C)(=O)=O)c2)CCSC(N)=N1` (stereo not shown) [Compound 30], the half-inhibitory concentration (IC50) was under 100 µM.

With `CCCCCOc1ccc(NC(=O)COc2cccc(C3(C)CCSC(N)=N3)c2)cc1` (stereo not shown) [Compound 211], the IC50 is under 100 µM.

`CCOc1cc(Cl)cnc1C(=O)Nc1cccc(C2(C)CCSC(N)=N2)c1` (stereo not shown) [Compound 532]: the IC50 was under 100 µM.

On to `CC1(c2cccc(NCc3ccc4ccccc4c3)c2)CCSC(N)=N1` (stereo not shown) [Compound 443], for which the half-maximal inhibitory concentration (IC50) was under 100 µM.

For `Cn1c(CNc2cccc(C3(C)CCSC(N)=N3)c2)cc2ccccc21` (stereo not shown) [Compound 78], the IC50 is under 100 µM.

For the compound `COCCn1c(C(=O)Nc2cccc(C3(C)CCSC(N)=N3)c2)cc2ccccc21` (stereo not shown) [Compound 77], the IC50 was under 100 µM.

As for `CC1(c2cccc(NC(=O)c3ccc(C(F)(F)F)cc3)c2)CCSC(N)=N1` (stereo not shown) [Compound 479], the IC50 was under 100 µM.

In the case of `COc1cnc(C(=O)Nc2cccc(C3(C)CCSC(N)=N3)c2)c(N(C)C)n1` (stereo not shown) [Compound 214], the IC50 was under 100 µM.

Turning to `CC1(c2cccc(NC(=O)c3c[nH]c(=O)cn3)c2)CCSC(N)=N1` (stereo not shown) [Compound 1077], the IC50 was under 100 µM.

For the compound `CC1(c2cccc(NC(=O)/C=C/c3ccccn3)c2)CCSC(N)=N1` (stereo not shown) [Compound 1237], the IC50 was under 100 µM.

For the compound `CC1(c2cccc(NC(=O)c3ccc(-n4cccn4)cc3)c2)CCSC(N)=N1` (stereo not shown) [Compound 321], the half-maximal inhibitory concentration (IC50) was under 100 µM.

In the case of `CC1(c2cccc(NCCc3ccccc3)c2)CCSC(N)=N1` (stereo not shown) [Compound 409], the IC50 was under 100 µM.

In the case of `COc1ccc(C(=O)Nc2cccc(C3(C)CCSC(N)=N3)c2)cc1[N+](=O)[O-]` (stereo not shown) [Compound 154], the half-inhibitory concentration (IC50) is under 100 µM.

With `COc1ccc(NC(=O)COc2cccc(C3(C)CCSC(N)=N3)c2)cc1` (stereo not shown) [Compound 67], the 50% inhibitory concentration (IC50) was under 100 µM.

Turning to `CCn1c2ccccc2c2cc(NC(=O)COc3cccc(C4(C)CCSC(N)=N4)c3)ccc21` (stereo not shown) [Compound 787], the IC50 was under 100 µM.

`CC1(c2cccc(C(=O)Nc3nncs3)c2)CCSC(N)=N1` (stereo not shown) [Compound 671]: the IC50 is under 100 µM.

As to `CC1(c2cccc(OCC(=O)Nc3ccc(C(=O)c4ccccc4)cc3)c2)CCSC(N)=N1` (stereo not shown) [Compound 591], the concentration for half-maximal inhibition (IC50) was under 100 µM.

Turning to `CC1(c2cccc(NC(=O)C(=O)c3ccccc3)c2)CCSC(N)=N1` (stereo not shown) [Compound 1272], the IC50 was under 100 µM.

In the case of `CC1(c2cccc(NC(=O)c3ccc(N)cn3)c2)CCSC(N)=N1` (stereo not shown) [Compound 279], the half-maximal inhibitory concentration (IC50) is under 100 µM.

Take `CC1(c2cccc(NC(=O)c3ccccc3C#N)c2)CCSC(N)=N1` (stereo not shown) [Compound 711]: the IC50 was under 100 µM.

As for `CCCCNC(=O)c1cc(C2(C)CCSC(N)=N2)ccc1F` (stereo not shown) [Compound 1074], the IC50 is under 100 µM.

For the compound `CC1(c2cccc(/C=C/C(=O)Nc3ccc(F)cc3)c2)CCSC(N)=N1` (stereo not shown) [Compound 415], the IC50 is under 100 µM.

Take `CC1(c2ccc(F)c(C(=O)NCc3ccccc3)c2)CCSC(N)=N1` (stereo not shown) [Compound 558]: the half-inhibitory concentration (IC50) was under 100 µM.

Consider `CC1(c2cccc(NC(=O)c3cccc(Br)c3)c2)CCSC(N)=N1` (stereo not shown) [Compound 273], for which the half-maximal inhibitory concentration (IC50) was under 100 µM.

For the compound `CC1(c2cccc(NC(=O)C(Cl)Cl)c2)CCSC(N)=N1` (stereo not shown) [Compound 861], the IC50 is under 100 µM.

Turning to `Cc1ccc(C(=O)Nc2cccc(C3(C)CCSC(N)=N3)c2)nn1` (stereo not shown) [Compound 618], the IC50 was under 100 µM.

For `CC1(c2cccc(OCC(=O)Nc3nccs3)c2)CCSC(N)=N1` (stereo not shown) [Compound 824], the IC50 was under 100 µM.

With `CCOCc1ccc(C(=O)Nc2cccc(C3(C)CCSC(N)=N3)c2)nc1` (stereo not shown) [Compound 1185], the IC50 is under 100 µM.

Regarding `CC1(c2cccc(NC(=O)Nc3ccc(Br)cc3)c2)CCSC(N)=N1` (stereo not shown) [Compound 887], the IC50 is under 100 µM.

Regarding `CC1(c2cccc(NC(=O)c3ccc(NCc4cccnc4)cn3)c2)CCSC(N)=N1` (stereo not shown) [Compound 426], the IC50 was under 100 µM.

Regarding `CC1(c2cccc(NC(=O)c3cc(F)c(Cl)cc3F)c2)CCSC(N)=N1` (stereo not shown) [Compound 35], the IC50 is under 100 µM.

For the compound `CC1(c2cc(NC(=O)c3ccc(F)cc3)cc(S(C)(=O)=O)c2)CCSC(N)=N1` (stereo not shown) [Compound 330], the half-inhibitory concentration (IC50) is under 100 µM.

`Cc1ccc(NC(=O)COc2cccc(C3(C)CCSC(N)=N3)c2)cc1` (stereo not shown) [Compound 746]: the IC50 was under 100 µM.

Regarding `COc1ccc(NC(=O)NCc2cccc(C3(C)CCSC(N)=N3)c2)cc1` (stereo not shown) [Compound 159], the 50% inhibitory concentration (IC50) was under 100 µM.

The same assay, now with this note: recombinant human BACE-1 protein, 3 h at 30° C., pH5.0; read-out: IC50 value.
As to `CC1(c2cc(Cl)cc(NC(=O)c3ccc(Cl)cn3)c2)CCSC(N)=N1` (stereo not shown) [Compound 739], the IC50 was 0.049 µM.

On to `Cc1ccc(NC(=O)COc2cccc(C3(C)CCSC(N)=N3)c2)cc1F` (stereo not shown) [Compound 1000], for which the 50% inhibitory concentration (IC50) is 8 µM.

On to `CC1(c2cccc(C=Cc3ccc(Cl)cn3)c2)CCSC(N)=N1` (stereo not shown) [Compound 616], for which the IC50 was 5.9 µM.

Turning to `CC1(c2cc(Cl)cc(NC(=O)c3cc4ccccc4s3)c2)CCSC(N)=N1` (stereo not shown) [Compound 832], the half-maximal inhibitory concentration (IC50) was determined as 0.222 µM.

With `CC1(c2cccc(OCC(=O)Nc3ccc(F)cc3)c2)CCSC(N)=N1` (stereo not shown) [Compound 1186], the half-maximal inhibitory concentration (IC50) is 5.7 µM.

In the case of `CC1(c2cc(Br)cc(NC(=O)c3ccco3)c2)CCSC(N)=N1` (stereo not shown) [Compound 786], the concentration for half-maximal inhibition (IC50) is 0.156 µM.

Turning to `CC1(c2cc(Cl)cc(NC(=O)c3ccco3)c2)CCSC(N)=N1` (stereo not shown) [Compound 822], the IC50 came to 0.243 µM.

On to `CC1(c2cccc(NC(=O)c3nc4ccccc4s3)c2)CCSC(N)=N1` (stereo not shown) [Compound 912], for which the IC50 was found to be 0.175 µM.

In the case of `COCc1cc(NC(=O)c2ccc(C(F)(F)F)cc2)cc(C2(C)CCSC(N)=N2)c1` (stereo not shown) [Compound 660], the IC50 was 4.59 µM.

As a reminder, the IC50 is the midpoint of a concentration-inhibition curve.
